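Where inhibition never reached the appropriate level, the endpoint shown equals the highest concentration tested. Otherwise, values were interpolated linearly from a five-concentration, 48-hour dose response in 96-well plates. Abbreviation: GI50, concentration required for 50% inhibition of growth.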 Calls of active or inactive are those of the source. Rule as the data show it: active = GI50 up to about 1.1 µM and inactive = higher. Where only a bound is given, the exact number is not on record here.

Here are results for twelve molecules from ChEMBL document CHEMBL1201862, “PubChem BioAssay data set” (2004).

Some test systems named below: MDA-MB-231; SF-268; UACC-257; U-251; CCRF-CEM; HT-29; A498; SNB-19; NCI-H522; MDA-MB-435; M14; SF-295; SR; UO-31; HCT-116; MOLT-4; Malme-3M; SNB-75; NCI/ADR-RES; NCI-H226.
Common to all, as to assay: NCI tumour cell line growth inhibition, 48 h

Take `Cc1cc(C)c2nccc(NCCCN(C)C)c2c1[N+](=O)[O-]`: the GI50 with MDA-MB-231 was 51.1 µM (inactive); in the assay on SF-268, 33 µM (inactive); with UACC-257, 17.1 µM (inactive); with U-251, 52.5 µM (inactive); in the assay with CCRF-CEM, 37.2 µM (inactive); in the assay with HT-29, 18.7 µM (inactive). Moreover, the GI50 is 59 µM (inactive) in the assay on A498; > 100 µM (inactive) with SNB-19; 14.4 µM (inactive) in the assay on NCI-H522; 29.6 µM (inactive) in the assay on MDA-MB-435; 19.1 µM (inactive) in the assay with M14; 26.1 µM (inactive) in the assay on SF-295. For the same molecule, the GI50 in the assay on SR is 30.6 µM (inactive); with UO-31, 20.3 µM (inactive); with HCT-116 it was 30.9 µM (inactive); with MOLT-4 it was 39.6 µM (inactive); in the assay on Malme-3M it was 19.3 µM (inactive); in the assay on SNB-75, 24.9 µM (inactive).

In the case of `CC(Nc1ncc2c(n1)-c1ccccc1OC2)C(=O)O` (stereo unspecified), the GI50 in the assay on MDA-MB-231 is 92.7 µM (inactive); in the assay on NCI/ADR-RES, > 100 µM (inactive); in the assay on SF-268, > 100 µM (inactive); with UACC-257, 60.3 µM (inactive); in the assay with U-251, > 100 µM (inactive); in the assay on CCRF-CEM, > 100 µM (inactive). The GI50 was 39.5 µM (inactive) in the assay on HT-29; 61.7 µM (inactive) in the assay with NCI-H226; > 100 µM (inactive) in the assay on SNB-19; > 100 µM (inactive) with MDA-MB-435; > 100 µM (inactive) in the assay with M14; > 100 µM (inactive) in the assay on SF-295. For the same molecule, the GI50 in the assay on SR is 48.5 µM (inactive); with UO-31, 41.2 µM (inactive); in the assay on HCT-116, > 100 µM (inactive); in the assay on MOLT-4 it was > 100 µM (inactive); with Malme-3M, > 100 µM (inactive); with SNB-75 it was 40.7 µM (inactive).

For the molecule `C[N+](C)(C)c1ncnc2c1ncn2C1CCCO1` (stereo unspecified), the GI50 in the assay with NCI/ADR-RES, in the assay on SF-268, in the assay with UACC-257, in the assay on U-251, in the assay on CCRF-CEM and with HT-29 was > 100 µM (inactive) each time. Further, the GI50 with A498, in the assay on NCI-H226, in the assay on SNB-19, in the assay on NCI-H522, with MDA-MB-435 and in the assay with M14 was > 100 µM (inactive) in each case. For the same molecule, the GI50 in the assay on SF-295 is > 100 µM (inactive); with UO-31, > 100 µM (inactive); in the assay with HCT-116 it was > 100 µM (inactive); in the assay on MOLT-4 it was > 100 µM (inactive); in the assay on Malme-3M it was > 100 µM (inactive); in the assay on SNB-75 it was 84.9 µM (inactive).

As to `COP(=O)(OC)C(O)CC(C)C` (stereo unspecified), the GI50 with MDA-MB-231, in the assay on UACC-257, in the assay on U-251, in the assay on HT-29, with A498 and in the assay on NCI-H226 was > 100 µM (inactive) throughout. Further, the GI50 in the assay on SNB-19, in the assay with MDA-MB-435, in the assay on M14, with SF-295, in the assay on UO-31 and in the assay with HCT-116 was > 100 µM (inactive) each time. In addition, the GI50 in the assay with MOLT-4 and with SNB-75 was > 100 µM (inactive) in each case.

Consider `C/C=C\C(CC(=O)NCCc1c[nH]c2ccccc12)CC(=O)OC` (stereo unspecified), for which the GI50 in the assay with MDA-MB-231, in the assay with NCI/ADR-RES, with SF-268, in the assay with UACC-257, with U-251 and in the assay on HT-29 was > 100 µM (inactive) in each case. Further, the GI50 with A498, with SNB-19, with NCI-H522, in the assay with MDA-MB-435, in the assay with M14 and in the assay with SF-295 was > 100 µM (inactive) throughout. In addition, the GI50 with UO-31, in the assay with HCT-116, in the assay with MOLT-4, in the assay with Malme-3M and in the assay with SNB-75 was > 100 µM (inactive) throughout.

For `CC(C)(C)OC(=O)NCCCCC(N)C(N)=O` (stereo unspecified), the GI50 in the assay with MDA-MB-231, with NCI/ADR-RES, in the assay on SF-268, with UACC-257, with U-251 and with CCRF-CEM was > 100 µM (inactive) throughout. Further, the GI50 in the assay on HT-29, with A498, in the assay on NCI-H226, with SNB-19, in the assay with NCI-H522 and in the assay on MDA-MB-435 was > 100 µM (inactive) each time. For the same molecule, the GI50 with M14, with SF-295, in the assay with UO-31, in the assay on HCT-116, with MOLT-4 and with Malme-3M was > 100 µM (inactive) throughout. In addition, the GI50 in the assay on SNB-75 was > 100 µM (inactive).

For `O=c1c(Cc2ccc(Cl)cc2)nnc2sc(-c3ccc(-c4ccc(F)c(Cl)c4)o3)nn12`, the GI50 was > 100 µM (inactive) with MDA-MB-231; 56.9 µM (inactive) with NCI/ADR-RES; 76.6 µM (inactive) in the assay with SF-268; 97.3 µM (inactive) in the assay on UACC-257; 99.5 µM (inactive) in the assay on U-251; 45.7 µM (inactive) with CCRF-CEM. In addition, the GI50 in the assay on HT-29 is 50.5 µM (inactive); in the assay with A498 it was 42.2 µM (inactive); in the assay on NCI-H226 it was > 100 µM (inactive); in the assay with SNB-19, > 100 µM (inactive); with NCI-H522, 62.1 µM (inactive); in the assay on MDA-MB-435, 82 µM (inactive). The GI50 is 64.6 µM (inactive) in the assay on M14; 88.9 µM (inactive) in the assay with SF-295; 33.6 µM (inactive) in the assay on UO-31; 29.7 µM (inactive) in the assay with HCT-116; 43.7 µM (inactive) in the assay with MOLT-4; > 100 µM (inactive) in the assay with Malme-3M.

As for `CC(C)CC(O)P(=O)(O)O.NC1CCCCC1` (stereo unspecified), the GI50 in the assay on MDA-MB-231, with UACC-257, in the assay with U-251, in the assay with HT-29, in the assay with A498 and with NCI-H226 was > 100 µM (inactive) throughout. Besides, the GI50 in the assay on SNB-19, with MDA-MB-435, in the assay on M14, in the assay on SF-295, in the assay with UO-31 and in the assay on HCT-116 was > 100 µM (inactive) throughout. Besides, the GI50 in the assay on MOLT-4 and in the assay on SNB-75 was > 100 µM (inactive) each time.

Take `CC(=O)N1C(Nc2nccs2)CCN1c1ccccc1` (stereo unspecified): the GI50 in the assay on MDA-MB-231, with NCI/ADR-RES, in the assay on SF-268, in the assay with UACC-257, with CCRF-CEM and in the assay on HT-29 was > 10 µM (inactive) each time. Further, the GI50 in the assay with NCI-H226, with SNB-19, with MDA-MB-435, in the assay with M14, in the assay with SF-295 and in the assay with SR was > 10 µM (inactive) in each case. The GI50 in the assay on HCT-116, in the assay with MOLT-4, in the assay on Malme-3M and in the assay on SNB-75 was > 10 µM (inactive) throughout.

`O=C1CN(c2ccccc2)C(=O)CN1NCNN1CC(=O)N(c2ccccc2)CC1=O`: the GI50 in the assay on SF-268, in the assay with UACC-257, with U-251, in the assay on CCRF-CEM, in the assay on HT-29 and with A498 was > 100 µM (inactive) each time. The GI50 with SNB-19, in the assay with NCI-H522, in the assay on MDA-MB-435, in the assay with M14, in the assay with SF-295 and in the assay with SR was > 100 µM (inactive) throughout. In addition, the GI50 in the assay with UO-31, with HCT-116, in the assay on MOLT-4, in the assay with Malme-3M and in the assay on SNB-75 was > 100 µM (inactive) each time.

In the case of `C[C@]12CCNC(=O)C=C1CC[C@@H]1C2CC[C@@]2(C)C1CC[C@@H]2OC(=O)COc1ccc(N(CCCl)CCCl)cc1` (stereo partly specified), the GI50 in the assay on MDA-MB-231 was 17.5 µM (inactive); in the assay with SF-268, 2.74 µM (inactive); in the assay on UACC-257, 13.8 µM (inactive); in the assay on U-251, 2.03 µM (inactive); in the assay on CCRF-CEM, 0.326 µM (active); in the assay on HT-29, 8.59 µM (inactive). In addition, the GI50 in the assay with A498 was 18.6 µM (inactive); in the assay on NCI-H226, 13.1 µM (inactive); in the assay with SNB-19 it was 10.8 µM (inactive); in the assay on NCI-H522, 1.65 µM (inactive); in the assay with MDA-MB-435, 21.8 µM (inactive); in the assay on M14 it was 6.35 µM (inactive). Moreover, the GI50 in the assay on SF-295 is 8.09 µM (inactive); in the assay on SR, 0.138 µM (active); in the assay on UO-31, 4.76 µM (inactive); in the assay on HCT-116 it was 3.73 µM (inactive); with MOLT-4, 0.145 µM (active); in the assay with Malme-3M, 8.45 µM (inactive). In addition, the GI50 in the assay on SNB-75 is 8.75 µM (inactive).

In the case of `CN1c2ccccc2C(=O)Nc2cnc(Cl)nc21`, the GI50 with MDA-MB-231 is 44.3 µM (inactive); in the assay on NCI/ADR-RES, 82.6 µM (inactive); in the assay on UACC-257, > 100 µM (inactive); in the assay with U-251, 45.5 µM (inactive); in the assay on CCRF-CEM, > 100 µM (inactive); in the assay with HT-29 it was > 100 µM (inactive). For the same molecule, the GI50 is 73.6 µM (inactive) in the assay on A498; > 100 µM (inactive) with NCI-H226; 36.6 µM (inactive) with SNB-19; 64.6 µM (inactive) in the assay with NCI-H522; > 100 µM (inactive) with MDA-MB-435; > 100 µM (inactive) in the assay with M14. Also, the GI50 in the assay on SF-295 was 46.3 µM (inactive); in the assay on UO-31 it was > 100 µM (inactive); in the assay on HCT-116, > 100 µM (inactive); in the assay with MOLT-4, > 100 µM (inactive); in the assay with Malme-3M, > 100 µM (inactive); with SNB-75, 39.2 µM (inactive).
